Where two headings read alike, the source gives them in different places.
Legend:
recombinant human GABA-T = molecular target: T1, recombinant human GABA-T (Homo sapiens, UniProt P80404); experiment: GABA-T inhibition assay, coupled with SSADH, NADPH absorbance at 340 nm (Mixture C); format: biochemical; conditions: for IC50: IC50 for human GABA-T, 10 min preincubation, 25 °C, pH 8.6, 200 µM GABA
T1 construct: made in house; host or cells: Expi293F human cells, transient transfection
Method: (§1) All test samples were prepared at a final volume of 200 µl/well in a 96-well plate with a clear flat bottom, and the enzyme reaction was carried out at 25 °C. The final solution of the assay in Figure 3(B) consisted of SSA (0, 12.5, 25, 50, 100, and 200 µM), 2.5 mM β-NADP^+, 1 mM 2-mercaptoethanol (2-ME), and SSADH (from 20 µL of 1 U/mL gabaculine-treated GABase) in 50 mM K4P2O7 buffer (pH 8.6). The final solution of the assay in Figure 3(C) consisted of GABA (0, 100 and 200 µM), 2.5 mM β-NADP^+, 5 mM α-KG, 1 mM 2-ME and each enzymatic mixture (Mixture A: 10 µL of 1 U/mL GABase; Mixture B: 10 µL of 1 U/mL gabaculine-treated GABase; Mixture C: 2 µg of human GABA-T mixed with 10 µL of 1 U/mL gabaculine-treated GABase) in 50 mM K4P2O7 buffer at pH 8.6. The final solution of the assay in Figure 3(D) consisted of 200 µM GABA, 2.5 mM β-NADP^+, 5 mM α-KG, 1 mM 2-ME, SSADH (from Mixture B) and human GABA-T at various concentrations (0.156, 0.313, 0.625, 1.25, 2.5, 5, and 10 µg/mL) in 50 mM K4P2O7 buffer at pH 8.6. […] The final solution of the assay in Figure 4(A) consisted of gabaculine (0, 15.63, 31.25, 62.5, 125, 250, 500, and 1000 nM), 200 µM GABA, 2.5 mM β-NADP^+, 5 mM α-KG, and each enzymatic mixture (A or C) in 50 mM K4P2O7 buffer (pH 8.6) containing or not containing 1 mM 2-ME. […] The change in 340 nm absorbance at 25 °C caused by the conversion of NADP^+ to NADPH, which is proportional to GABA-T activity, was recorded every 4 min kinetically with SpectraMax iD5 Multi-Mode Microplate Reader (Molecular Devices). GABA-T activity was calculated during the linear phase of the reaction, corrected for background from blanks. All experiments were performed in triplicate and data were presented as mean ± SEM (Standard Error of Mean) or each replicate. Data plotting and regression analysis were performed with GraphPad Prism software (Version 9.1.2, GraphPad Software).

bacterial GABA-T = molecular target: T2, bacterial GABA-T (Pseudomonas fluorescens, UniProt Q4KKA1); experiment: GABA-T inhibition assay with GABase, NADPH absorbance at 340 nm (Mixture A); format: biochemical; conditions: for IC50: 10 min preincubation, 25 °C, pH 8.6, 200 µM GABA
T2 sequence (Q4KKA1 1-425): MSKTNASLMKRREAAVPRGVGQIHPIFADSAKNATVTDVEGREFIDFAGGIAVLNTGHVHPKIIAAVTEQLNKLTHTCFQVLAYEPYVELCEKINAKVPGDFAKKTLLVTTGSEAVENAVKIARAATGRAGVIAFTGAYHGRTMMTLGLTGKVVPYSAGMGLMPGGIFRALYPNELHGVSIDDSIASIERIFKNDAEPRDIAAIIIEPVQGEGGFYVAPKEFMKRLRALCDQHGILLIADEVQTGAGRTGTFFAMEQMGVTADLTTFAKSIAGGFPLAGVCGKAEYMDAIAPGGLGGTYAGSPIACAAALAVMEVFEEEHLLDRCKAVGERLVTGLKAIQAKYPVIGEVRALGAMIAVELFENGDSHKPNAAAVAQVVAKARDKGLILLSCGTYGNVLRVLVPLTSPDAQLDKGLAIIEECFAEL
Source text: GABase (Merck, G7509) is a convenient and inexpensive source of SSADH, as it is a commercially available mixture composed of bacterial GABA-T and SSADH obtained from Pseudomonas fluorescens. However, GABase was not able to be used directly in our human GABA-T assay due to the presence of bacterial GABA-T. So we used the bacterial SSADH isolation method as previously described, which allowed large amounts of bacterial SSADH to be isolated quickly and conveniently from GABase by irreversibly inhibiting the bacterial GABA-T activity. Five milligrams of gabaculine (Santa Cruz Biotechnology, sc-200473), a naturally occurring GABA-T irreversible inhibitor, was added to 25 ml of 1 U/mL GABase solution (reconstituted with 50 mM K4P2O7 buffer at pH 8.6), followed by maintaining the reaction at 4 °C for 30 min. The residual gabaculine, which also can inactivate recombinant human GABA-T, was eliminated by dialysis at 4 °C with 2 L of K4P2O7 buffer, changed 3 times per 9 h followed by the final dialysis overnight. The isolated bacterial SSADH was stored at −80 °C for long-term storage.
as §1

T1 sequence (P80404 29-500): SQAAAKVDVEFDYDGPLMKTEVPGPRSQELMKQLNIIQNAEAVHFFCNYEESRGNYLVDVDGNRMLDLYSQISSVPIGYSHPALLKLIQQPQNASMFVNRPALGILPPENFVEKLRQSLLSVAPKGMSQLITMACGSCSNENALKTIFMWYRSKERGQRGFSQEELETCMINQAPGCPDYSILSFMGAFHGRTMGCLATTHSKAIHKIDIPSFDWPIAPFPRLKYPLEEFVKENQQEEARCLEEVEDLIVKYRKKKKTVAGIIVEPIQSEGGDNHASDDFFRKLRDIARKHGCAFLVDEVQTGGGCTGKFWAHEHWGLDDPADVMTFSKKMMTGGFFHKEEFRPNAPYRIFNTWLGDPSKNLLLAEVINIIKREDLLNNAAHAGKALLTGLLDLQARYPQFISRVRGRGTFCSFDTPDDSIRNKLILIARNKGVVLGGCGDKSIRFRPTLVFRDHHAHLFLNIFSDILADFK

difference in sensitivity, human vs bacterial GABA-T (recombinant human GABA-T; with 2-ME, monomeric form) [fold]	difference in sensitivity, human vs bacterial GABA-T (recombinant human GABA-T; without 2-ME, human homodimeric vs bacterial multimeric form) [fold]	IC50 (bacterial GABA-T; absence of 2-ME (multimeric form), read-out: IC50 for bacterial GABA-T) [µM]	IC50 (bacterial GABA-T; presence of 1 mM 2-ME (monomeric form), read-out: IC50 for bacterial GABA-T) [µM]	Structure (SMILES)	IC50 (recombinant human GABA-T; absence of 2-ME (homodimeric/multimeric form)) [µM]	IC50 (recombinant human GABA-T; presence of 1 mM 2-ME (monomeric form)) [µM]	GABA degradation-dependent NADPH synthesis in GABase after treatment (bacterial GABA-T; 5 mg gabaculine in 25 ml of 1 U/mL GABase, 4 °C, 30 min, then dialysis, GABA 0, 100, 200 µM)	IC50 (bacterial GABA-T; IC50 for bacterial GABA-T, absence of 2-ME (multimeric form)) [µM]	IC50 (bacterial GABA-T; IC50 for bacterial GABA-T, presence of 1 mM 2-ME (monomeric form)) [µM]
–	–	–	–	NC1C=CC=C(C(=O)O)C1 (stereo not drawn) [gabaculine]	0.22	0.12	completely impaired	0.19	0.13
202	70	631	14200	C=CC(N)CCC(=O)O (stereo not drawn) [vigabatrin]	–	–	–	–	–

Source: article PMC8439235, “High-yield synthesis and purification of recombinant human GABA transaminase for high-throughput screening assays” (Journal of Enzyme Inhibition and Medicinal Chemistry, 2021)
